# How the values were obtained:
# Assay in all cases: relative viability (nuclei count vs DMSO), 5 days (fraction); higher = more cells survive
# Irinotecan + Alpelisib = compound: CCc1c2c(nc3ccc(OC(=O)N4CCC(N5CCCCC5)CC4)cc13)-c1cc3c(c(=O)n1C2)COC(=O)[C@]3(O)CC [Irinotecan] + Cc1nc(NC(=O)N2CCC[C@H]2C(N)=O)sc1-c1ccnc(C(C)(C)C(F)(F)F)c1 [Alpelisib] (partner 2 µM)
# Method in brief: (§1)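 A single step with final 0.05% Triton X-100, 1% formaldehyde and 1 ug/ml Hoechst fixed the cells and stained nuclei 5 days after treatment. Lung cancer cell lines in 1536-well plates had been treated by pin tool the day after seeding with one drug alone or a fixed anchor-drug dose plus five library-drug doses (not always all listed) in √10 steps, and nuclei were counted on 4× images. Relative viability is the ratio of nuclei in treated wells to nuclei in vehicle wells, taken as the median of duplicate plates.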
# RU-SKI 43 + AZD7762 = compound: CC[C@@H](C)CNCC(=O)N1CCC2=C([C@@H]1COC3=CC=CC(=C3)C)C=CS2 [RU-SKI 43] + NC(=O)Nc1cc(-c2cccc(F)c2)sc1C(=O)N[C@H]1CCCNC1 [AZD7762] (partner 0.2 µM)
# Method in brief: as §1
# Irinotecan + Bortezomib = compound: CCc1c2c(nc3ccc(OC(=O)N4CCC(N5CCCCC5)CC4)cc13)-c1cc3c(c(=O)n1C2)COC(=O)[C@]3(O)CC [Irinotecan] + CC(C)C[C@H](NC(=O)[C@H](Cc1ccccc1)NC(=O)c1cnccn1)B(O)O [Bortezomib] (partner 0.002 µM)
# Method in brief: as §1
# RU-SKI 43 + Vorinostat = compound: CC[C@@H](C)CNCC(=O)N1CCC2=C([C@@H]1COC3=CC=CC(=C3)C)C=CS2 [RU-SKI 43] + O=C(CCCCCCC(=O)Nc1ccccc1)NO [Vorinostat] (partner 1 µM)
# Method in brief: as §1
Cell Line,relative viability (Irinotecan + Alpelisib; first compound 0.6325 µM),relative viability (Irinotecan + Alpelisib; first compound 2 µM),relative viability (Irinotecan + Alpelisib; first compound 6.325 µM),relative viability (Irinotecan + Alpelisib; first compound 20 µM),relative viability (RU-SKI 43 + AZD7762; first compound 0.1 µM),relative viability (RU-SKI 43 + AZD7762; first compound 0.3162 µM),relative viability (RU-SKI 43 + AZD7762; first compound 1 µM),relative viability (RU-SKI 43 + AZD7762; first compound 3.162 µM),relative viability (RU-SKI 43 + AZD7762; first compound 10 µM),relative viability (Irinotecan + Bortezomib; first compound 0.6325 µM),relative viability (Irinotecan + Bortezomib; first compound 2 µM),relative viability (Irinotecan + Bortezomib; first compound 6.325 µM),relative viability (Irinotecan + Bortezomib; first compound 20 µM),relative viability (RU-SKI 43 + Vorinostat; first compound 0.1 µM),relative viability (RU-SKI 43 + Vorinostat; first compound 0.3162 µM),relative viability (RU-SKI 43 + Vorinostat; first compound 1 µM),relative viability (RU-SKI 43 + Vorinostat; first compound 3.162 µM),relative viability (RU-SKI 43 + Vorinostat; first compound 10 µM)
HCC-827,0.522,0.252,0.203,0.233,0.188,0.155,0.206,0.223,0.197,1.03,0.923,0.639,0.416,0.768,0.81,1.04,0.783,0.885
HOP-62,0.244,0.171,0.158,0.129,0.463,0.643,0.71,0.704,0.529,0.642,0.2,0.112,0.179,0.563,0.693,0.632,0.724,0.639
IA-LM,0.614,0.408,0.189,0.0631,–,–,–,–,–,0.722,0.355,0.197,0.0773,0.795,0.993,0.964,0.978,0.977
LK-2,1.17,1.4,0.487,0.259,0.342,0.372,0.486,0.49,0.468,–,–,–,–,0.294,0.265,0.363,0.301,0.224
NCI-H358,0.628,0.561,0.311,0.248,0.475,0.585,0.574,0.591,0.484,–,–,–,–,0.642,0.929,0.708,0.793,0.614
NCI-H520,0.751,0.733,0.282,0.203,–,–,–,–,–,0.446,0.477,0.252,0.138,0.77,0.745,0.788,0.704,0.646
NCI-H522,–,–,–,–,0.918,0.984,1.04,0.859,0.853,–,–,–,–,0.88,0.803,1.01,0.941,0.932
NCI-H661,0.798,0.538,0.277,0.269,–,–,–,–,–,0.701,0.609,0.354,0.285,0.752,0.984,0.815,0.777,0.736
NCI-H1299,0.919,0.918,0.801,0.36,–,–,–,–,–,0.932,0.824,0.487,0.415,–,–,–,–,–
NCI-H1395,–,0.707,0.52,0.246,0.382,0.394,0.387,0.393,0.394,–,–,–,–,0.844,0.602,1.07,0.611,0.91
NCI-H1563,0.86,0.912,0.875,0.654,–,–,–,–,–,0.598,0.891,0.871,0.477,–,–,–,–,–
NCI-H1648,–,–,–,–,0.502,0.626,0.656,0.694,0.628,–,–,–,–,0.416,0.572,0.563,0.51,0.754
NCI-H1650,–,–,–,–,–,–,–,–,–,0.188,0.198,0.244,0.133,0.55,0.674,0.523,0.583,0.589
NCI-H1703,0.305,0.482,0.385,0.136,0.177,0.137,0.134,0.11,0.12,0.267,0.426,0.33,0.112,–,–,–,–,–
NCI-H1792,0.711,0.673,0.329,0.11,0.623,0.753,0.656,0.712,0.686,0.955,1.17,0.486,0.192,–,–,–,–,–
NCI-H1793,–,0.668,0.383,0.259,0.56,0.719,0.641,0.447,0.29,–,–,–,–,0.799,0.742,0.872,0.792,0.602
NCI-H1944,0.58,0.271,0.168,0.167,0.591,0.579,0.447,0.589,0.502,–,–,–,–,0.548,0.623,0.522,0.499,0.513
NCI-H2009,0.838,0.591,0.26,0.135,–,–,–,–,–,0.294,0.515,0.228,0.0808,0.692,0.757,0.751,0.693,0.679
NCI-H2023,0.607,0.468,0.202,0.0912,–,–,–,–,–,0.435,0.686,0.162,0.0682,0.742,0.918,0.772,0.815,0.602
NCI-H2170,0.929,0.399,0.3,0.216,0.846,1.07,0.959,0.866,0.882,–,–,–,–,0.831,1.06,0.763,0.843,0.889
NCI-H2228,0.791,0.598,0.431,0.408,–,–,–,–,–,0.689,0.685,0.514,0.343,0.603,0.928,0.828,0.727,0.596
NCI-H2342,–,–,–,–,0.474,–,0.564,0.468,0.477,–,–,–,–,0.724,–,0.718,0.884,0.716
SK-LU-1,0.459,0.541,0.351,0.273,–,–,–,–,–,0.887,0.672,0.291,0.47,0.738,0.893,0.882,0.795,0.775
SK-MES-1,0.997,0.877,0.426,0.267,–,–,–,–,–,–,–,–,–,1.15,1.45,1.28,1.21,1.1
SW 900,–,–,–,–,0.523,0.612,0.571,0.588,0.58,–,–,–,–,0.36,0.584,0.782,0.621,0.221
SW 1573,0.829,0.481,0.192,0.204,–,–,–,–,–,0.803,0.745,0.189,0.162,0.746,0.997,0.963,0.934,0.767

# Source: the supplement of paper PMC10307832
